Source: ChEMBL document CHEMBL1201862, “PubChem BioAssay data set” (2004)
Active and inactive are the calls of the source.

Columns and labels:
[1] = biological target: T1, Heat shock factor protein 1 (Mus musculus, UniProt P38532); assay: inhibition of MG132-induced HSE-luciferase signal, confirmation, cell-based, NIH3T3, luminescence, dose retest (AID 2382); type: functional;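 note: NIH3T3 fibroblasts with HSF1-driven luciferase reporter stressed by proteasome inhibitor MG132; luminescence from HSF1-driven luciferase expression after 8 hours of MG132 stress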
T1 sequence (P38532 whole entry): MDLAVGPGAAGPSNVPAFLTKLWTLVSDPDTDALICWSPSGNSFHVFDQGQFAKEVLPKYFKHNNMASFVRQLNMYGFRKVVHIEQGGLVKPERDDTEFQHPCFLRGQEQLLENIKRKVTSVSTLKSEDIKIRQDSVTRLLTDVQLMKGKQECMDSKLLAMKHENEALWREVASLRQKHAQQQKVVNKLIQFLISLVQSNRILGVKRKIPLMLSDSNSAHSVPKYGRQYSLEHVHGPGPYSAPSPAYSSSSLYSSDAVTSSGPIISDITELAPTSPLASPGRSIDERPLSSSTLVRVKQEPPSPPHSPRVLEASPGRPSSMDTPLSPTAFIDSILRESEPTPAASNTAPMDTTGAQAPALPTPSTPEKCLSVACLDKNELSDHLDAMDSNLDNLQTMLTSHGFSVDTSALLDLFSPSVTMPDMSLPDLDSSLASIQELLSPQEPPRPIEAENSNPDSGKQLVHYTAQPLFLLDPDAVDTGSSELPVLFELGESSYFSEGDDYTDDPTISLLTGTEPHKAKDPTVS

[2] = biological target: T2, Sentrin-specific protease 6 (Homo sapiens, UniProt Q9GZR1); type: functional;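 note: Luminescence-based dose-response confirmatory assay of SENP6 inhibition, following up an ultra-high-throughput screen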
T2 sequence (Q9GZR1 whole entry): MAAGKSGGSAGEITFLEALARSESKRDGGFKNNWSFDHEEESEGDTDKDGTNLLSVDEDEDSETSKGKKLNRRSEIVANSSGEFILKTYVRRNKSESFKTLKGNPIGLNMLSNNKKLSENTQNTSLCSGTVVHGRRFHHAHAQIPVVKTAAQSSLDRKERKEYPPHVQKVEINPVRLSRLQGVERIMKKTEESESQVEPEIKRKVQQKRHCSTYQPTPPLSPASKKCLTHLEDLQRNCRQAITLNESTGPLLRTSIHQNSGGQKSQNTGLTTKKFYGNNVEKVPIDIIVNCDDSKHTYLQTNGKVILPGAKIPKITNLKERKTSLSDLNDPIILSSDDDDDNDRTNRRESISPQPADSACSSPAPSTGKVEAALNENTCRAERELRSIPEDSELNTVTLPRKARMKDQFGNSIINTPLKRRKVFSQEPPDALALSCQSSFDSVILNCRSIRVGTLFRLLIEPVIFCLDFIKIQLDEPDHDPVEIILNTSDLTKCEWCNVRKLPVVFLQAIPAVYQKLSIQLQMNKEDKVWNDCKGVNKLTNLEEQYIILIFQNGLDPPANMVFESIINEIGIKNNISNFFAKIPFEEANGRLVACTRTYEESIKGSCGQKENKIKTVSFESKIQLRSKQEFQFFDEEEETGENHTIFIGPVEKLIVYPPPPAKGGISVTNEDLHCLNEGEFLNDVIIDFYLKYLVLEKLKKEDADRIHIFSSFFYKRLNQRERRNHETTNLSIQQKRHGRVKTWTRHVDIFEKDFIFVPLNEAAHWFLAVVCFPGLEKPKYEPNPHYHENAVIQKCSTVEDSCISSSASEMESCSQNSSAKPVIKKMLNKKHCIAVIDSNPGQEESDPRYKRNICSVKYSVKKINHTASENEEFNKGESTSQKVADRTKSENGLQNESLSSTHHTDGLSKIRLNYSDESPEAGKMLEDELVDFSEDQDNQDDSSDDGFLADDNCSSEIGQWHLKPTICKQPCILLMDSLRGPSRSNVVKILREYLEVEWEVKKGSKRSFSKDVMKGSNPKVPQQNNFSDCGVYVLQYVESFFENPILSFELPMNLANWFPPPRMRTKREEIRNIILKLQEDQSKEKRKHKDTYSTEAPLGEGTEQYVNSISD

H4 = assay: Luminescence Cell-Based Dose Response HTS to Identify Activators of 5'UTR Stem-Loop Driven Prion Protein mRNA Translation in H4 Neuroglioblastoma Cells. [Related pubchem assays: 1829 (Project Summary), 1814 (Primary HTS)]; type: functional; conditions: Homo sapiens
[3] = biological target: Bifunctional protein GlmU (Mycobacterium tuberculosis, UniProt P9WMN3); assay: Inhibitors of Mycobacterial Glucosamine-1-phosphate acetyl transferase (GlmU). Secondary screen.; set-up: species or system Mycobacterium tuberculosis H37Rv
Sequence of Bifunctional protein GlmU (P9WMN3 whole entry): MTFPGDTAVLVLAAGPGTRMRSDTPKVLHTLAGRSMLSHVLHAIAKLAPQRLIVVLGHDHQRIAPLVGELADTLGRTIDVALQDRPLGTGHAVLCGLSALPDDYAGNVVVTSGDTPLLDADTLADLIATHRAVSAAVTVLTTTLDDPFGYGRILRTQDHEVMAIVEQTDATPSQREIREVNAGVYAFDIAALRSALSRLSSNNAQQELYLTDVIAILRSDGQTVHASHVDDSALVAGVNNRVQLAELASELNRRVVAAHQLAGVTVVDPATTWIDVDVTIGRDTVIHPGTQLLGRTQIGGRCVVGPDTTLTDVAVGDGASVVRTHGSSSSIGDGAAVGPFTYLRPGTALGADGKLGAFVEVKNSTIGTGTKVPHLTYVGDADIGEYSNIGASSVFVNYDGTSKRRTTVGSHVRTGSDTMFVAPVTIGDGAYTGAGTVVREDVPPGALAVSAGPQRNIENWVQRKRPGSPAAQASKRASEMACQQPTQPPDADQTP

Large T antigen = Large T antigen (Simian virus 40, UniProt P03070); type: functional, Betapolyomavirus macacae;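 note: Confirmatory-stage PubChem screen for compounds that inhibit SV40 T antigen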
Sequence of Large T antigen (P03070 whole entry, the tested form may be a part): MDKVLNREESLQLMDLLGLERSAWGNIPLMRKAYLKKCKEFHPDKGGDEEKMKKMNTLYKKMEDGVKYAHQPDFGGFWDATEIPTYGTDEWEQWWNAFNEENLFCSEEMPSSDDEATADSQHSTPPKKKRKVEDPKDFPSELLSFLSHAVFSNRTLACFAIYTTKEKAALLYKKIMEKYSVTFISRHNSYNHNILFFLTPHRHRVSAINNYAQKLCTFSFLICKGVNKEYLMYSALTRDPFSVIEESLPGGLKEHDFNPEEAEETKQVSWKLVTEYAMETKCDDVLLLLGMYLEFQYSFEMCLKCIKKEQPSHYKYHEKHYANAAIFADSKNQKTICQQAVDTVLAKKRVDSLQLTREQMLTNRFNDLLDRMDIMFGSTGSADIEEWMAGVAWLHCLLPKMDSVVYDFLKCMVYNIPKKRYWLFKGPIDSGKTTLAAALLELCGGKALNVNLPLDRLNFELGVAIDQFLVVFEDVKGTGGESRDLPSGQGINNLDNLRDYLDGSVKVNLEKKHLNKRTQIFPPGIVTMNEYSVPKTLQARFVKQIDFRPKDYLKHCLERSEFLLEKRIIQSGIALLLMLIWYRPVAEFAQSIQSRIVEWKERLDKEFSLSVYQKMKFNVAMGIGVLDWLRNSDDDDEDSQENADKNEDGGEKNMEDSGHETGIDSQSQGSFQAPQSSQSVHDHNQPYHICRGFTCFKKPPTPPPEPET

CHO = assay: cytotoxicity in TLR9-MyD88 CHO cells, dose response, cytotoxicity control for TLR9-MyD88 binding inhibitor project, cell-based, luminescence (AID 588339); type: functional, hamster; conditions: Cricetulus griseus;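 note: CHO cells stably coexpressing TLR9 and MyD88 fusions from primary screen; compound exposure lasted 48 hours before viability readout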
[4] = biological target: Sphingosine 1-phosphate receptor 1 (Homo sapiens, UniProt P21453); type: functional;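 note: Tango beta-arrestin reporter U2OS cells stimulated with S1P near its EC80; inhibitor potency meaning antagonism of receptor activation by the natural agonist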
Sequence of Sphingosine 1-phosphate receptor 1 (P21453 whole entry): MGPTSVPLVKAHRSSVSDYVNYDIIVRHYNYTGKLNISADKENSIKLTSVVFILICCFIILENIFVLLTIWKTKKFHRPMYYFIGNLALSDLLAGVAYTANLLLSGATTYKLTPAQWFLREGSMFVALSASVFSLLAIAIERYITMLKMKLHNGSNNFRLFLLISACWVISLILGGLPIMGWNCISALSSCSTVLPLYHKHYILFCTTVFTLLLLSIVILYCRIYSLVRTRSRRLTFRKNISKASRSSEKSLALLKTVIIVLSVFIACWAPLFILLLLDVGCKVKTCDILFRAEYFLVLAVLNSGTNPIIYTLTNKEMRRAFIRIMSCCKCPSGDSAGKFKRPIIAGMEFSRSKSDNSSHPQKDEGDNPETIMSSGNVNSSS

[5] = inhibitors of PGC1a acetylation in cells, dose response, cell-based, cherry-picked samples (AID 720514); type: functional;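 note: potency may reflect raised or lowered acetylation signal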
[6] = test system: Streptococcus sp. 'group A'; assay: growth inhibition of control SK(-) GAS strain, dose response, counter-screen for streptokinase expression inhibitor project, luminescence, kanamycin, BacTiterGlo, confirmation (AID 1900); type: functional, organism-based
[7] = Luminescence Cell-Based Dose Confirmation HTS to Identify Activators of 5'UTR Stem-Loop Driven Alpha-Synuclein mRNA Translation in H4 Neuroglioblastoma Cells. [Related pubchem assays: 1829 (Project Summary), 1814 (Primary HTS)]; type: functional
[8] = biological target: Heat shock protein HSP 90-alpha (Homo sapiens, UniProt P07900); type: functional, organism-based
cells = type: functional
Beta Lactamase = Beta Lactamase (Pseudomonas aeruginosa, UniProt Q932Y6); assay: beta-lactamase reporter inhibitor potency, dose response, artefact control for TLR9-MyD88 binding inhibitor project, BLA reporter cells, FRET fluorescence (AID 588341); type: cell-based;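 note: cell based assay in CHO-K1 cells stably expressing beta-lactamase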
Sequence of Beta Lactamase (Q932Y6 whole entry): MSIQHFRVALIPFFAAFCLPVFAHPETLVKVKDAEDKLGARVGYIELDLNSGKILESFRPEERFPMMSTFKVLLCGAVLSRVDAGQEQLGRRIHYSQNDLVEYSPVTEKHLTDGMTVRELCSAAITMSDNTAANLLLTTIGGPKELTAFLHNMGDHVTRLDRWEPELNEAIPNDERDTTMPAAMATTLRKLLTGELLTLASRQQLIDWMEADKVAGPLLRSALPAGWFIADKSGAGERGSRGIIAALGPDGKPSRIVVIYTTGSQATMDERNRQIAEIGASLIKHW

[9] = biological target: T3, Sphingosine 1-phosphate receptor 4 (Homo sapiens, UniProt O95977); assay: Fluorescence dose response cell-based high throughput screening assay for antagonists of the Sphingosine 1-Phosphate Receptor 4 (S1P4). [Related pubchem assays: 1524 (Confirmation in triplicates.), 1510 (Primary screen.)]; type: functional
T3 sequence (O95977 whole entry): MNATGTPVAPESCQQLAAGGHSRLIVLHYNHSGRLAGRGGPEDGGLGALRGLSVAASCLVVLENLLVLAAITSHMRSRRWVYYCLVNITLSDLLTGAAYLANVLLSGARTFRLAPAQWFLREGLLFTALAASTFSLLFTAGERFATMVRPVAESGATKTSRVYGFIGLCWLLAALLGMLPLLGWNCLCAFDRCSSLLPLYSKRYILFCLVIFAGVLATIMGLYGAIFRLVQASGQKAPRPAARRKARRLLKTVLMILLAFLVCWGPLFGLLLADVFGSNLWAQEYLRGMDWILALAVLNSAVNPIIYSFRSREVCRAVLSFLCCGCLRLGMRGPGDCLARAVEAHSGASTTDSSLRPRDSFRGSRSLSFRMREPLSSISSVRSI

SUMO-activating enzyme = SUMO-activating enzyme (Homo sapiens, UniProt Q9UBT2); assay: inhibitors of in vitro SUMOylation cascade, primary screen, biochemical, HTRF, uHTS (AID 2006); type: protein-complex assay
Sequence of SUMO-activating enzyme (Q9UBE0 whole entry): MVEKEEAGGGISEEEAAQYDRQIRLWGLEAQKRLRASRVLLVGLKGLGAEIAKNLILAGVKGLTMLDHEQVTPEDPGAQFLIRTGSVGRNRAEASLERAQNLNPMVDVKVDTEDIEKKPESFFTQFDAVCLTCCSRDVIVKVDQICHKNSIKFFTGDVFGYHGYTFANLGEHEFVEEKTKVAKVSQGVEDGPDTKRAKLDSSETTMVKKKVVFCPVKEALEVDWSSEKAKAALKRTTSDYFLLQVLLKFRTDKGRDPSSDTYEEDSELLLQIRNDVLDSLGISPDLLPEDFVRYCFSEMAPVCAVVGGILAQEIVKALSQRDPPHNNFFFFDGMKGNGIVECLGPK
Sequence of SUMO-activating enzyme (Q9UBT2 whole entry): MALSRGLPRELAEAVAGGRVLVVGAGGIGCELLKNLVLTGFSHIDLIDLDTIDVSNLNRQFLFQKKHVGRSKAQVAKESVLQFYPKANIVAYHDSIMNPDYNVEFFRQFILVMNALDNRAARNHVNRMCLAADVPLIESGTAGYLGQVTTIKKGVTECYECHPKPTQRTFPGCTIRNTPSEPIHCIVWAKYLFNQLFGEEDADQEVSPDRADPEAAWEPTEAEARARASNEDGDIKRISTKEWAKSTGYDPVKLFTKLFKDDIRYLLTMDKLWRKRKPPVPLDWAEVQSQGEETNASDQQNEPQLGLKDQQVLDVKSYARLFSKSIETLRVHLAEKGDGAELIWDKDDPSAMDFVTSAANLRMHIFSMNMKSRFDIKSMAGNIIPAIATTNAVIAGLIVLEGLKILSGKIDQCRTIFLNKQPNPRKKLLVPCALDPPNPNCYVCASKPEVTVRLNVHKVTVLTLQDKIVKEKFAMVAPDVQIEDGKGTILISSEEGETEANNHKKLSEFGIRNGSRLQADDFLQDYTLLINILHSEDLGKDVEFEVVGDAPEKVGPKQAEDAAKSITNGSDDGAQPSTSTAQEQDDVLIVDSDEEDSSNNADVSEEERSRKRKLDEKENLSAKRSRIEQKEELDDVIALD

SMILES	EC50 [1]	IC50 [2]	EC50 (H4)	IC50 [3]	IC50 (Large T antigen)	IC50 (CHO)	IC50 [4]	AC50 [5]	EC50 [6]	EC50 [7]	AC50 [8]	IC50 (cells)	IC50 (Beta Lactamase)	IC50 [9]	IC50 (SUMO-activating enzyme)
CC1OC(Nc2cccc3ccccc23)C(O)C(O)C1O (configuration not stated)	> 195 µM (not active)	3.63 µM (active)	–	–	–	–	–	–	–	–	–	–	–	–	–
O=C(Nc1ccccc1)c1nnsc1[S+]([O-])c1ccc(Cl)cc1 (configuration not stated)	–	–	24 µM (active)	197 µM (active)	25 µM (active)	3.46 µM (active)	> 49.8 µM (not active)	10.3 µM (active)	2.11 µM (active)	8.7 µM (active)	< 0.195 µM (active)	13.1 µM (active)	11.9 µM (inactive)	1.15 µM (active)	–
O=C1C=C(Nc2ccccc2)c2ccccc2C1=O	–	5.8 µM (active)	–	–	–	–	–	–	1.77 µM (active)	–	–	–	–	–	20.7 µM (active)
